System: alanine aminotransferase (ALAT) levels
Assay: Clinical trials, longer-term ximelagatran treatment: alanine aminotransferase (ALAT) elevation
Type: in vivo, human
Text: Phase III clinical trials have been performed using fixed doses of melagatran and ximelagatran for the prevention of VTE in hip or knee replacement surgery. In addition, clinical trials have been performed using ximelagatran for the treatment and long-term secondary prevention of VTE, and for the prevention of stroke in patients with non-valvular atrial fibrillation. Ximelagatran has also been tested for secondary thrombosis prophylaxis post-myocardial infarction/acute coronary syndrome (ACS).
Alanine aminotransferrase (ALAT) is an enzyme mostly expressed in the liver (EC 2.6.1.2). It is also called serum glutamate pyruvate transaminase (SGPT) or alanine transaminase (ALT). This enzyme is release into the plasma by liver cell death, which is a normal event. However, when liver cell death increases, ALAT levels rise above the normal range. The spill-over of this enzyme into blood is routinely measured as a marker of abnormal liver-cell damage. For example, alcoholic or viral hepatitis will increase ALAT levels, as will severe congestive heart failure. ALAT is also markedly raised in hepatitis and other acute liver damage. An elevated ALAT in the presence of normal levels of plasma alkaline phosphatase helps distinguish liver disease caused by liver-cell damage from diseases caused by problems in biliary ducts. Elevations of ALAT are normally measured in multiples of the upper limit of normal (ULN), with a reference range of 15-45 U/L in most laboratories. In 1987, in a study of 19,877 healthy Air Force recruits, only 99 (0.5%) had confirmed ALAT elevations (as reviewed in Green & Flamm (2002) Gastroenterology 123:1367-1384).
The increase in ALAT values with ximelagatran, usually occurred within the first 6 months of treatment and were mainly asymptomatic. […] Subject to the future regulatory approval of ximelagatran, regular liver function testing (LFT) using an appropriate algorithm may be required if ximelagatran is used for treatment periods exceeding a month. […]

## CCOC(=O)CN[C@@H](C(=O)N1CC[C@H]1C(=O)NCc1ccc(/C(N)=N\O)cc1)C1CCCCC1 [ximelagatran, EtOOC—CH2—(R)Cgl-Aze-Pab-OH]
longer-term treatment (>35 days), 1.2% in the comparator groups
  patients exhibiting ALAT 3-fold or more above the upper limit of normal (≧3×ULN): 7.9%
Regardless of whether treatment was continued or discontinued
  reversibility of the increases in ALAT: reversible in most patients
usually, time from start of treatment
  time of occurrence of the increase in ALAT values: ≤ 6 months
